Six compounds from patent US20260256925A1, “INDAZOLE DERIVATIVES AS ESTROGEN RECEPTOR DEGRADERS” (REGENTS OF THE UNIVERSITY OF MICHIGAN, priority 2022, published 2026) can be followed below.

One test addresses T1, CRBN/DDB1 (Homo sapiens, UniProt Q96SW2).
T1 construct: purchased Wuxi RP210521GA
It counts as binding. Particulars: HTRF, Cy5-labeled Thalidomide probe. The protocol: The binding potency was determined using HTRF assay technology (Perkin Elmer). Compounds were serially diluted in DMSO and 0.2 μL volume was transferred to white 384-well plate.

For a further test, the target named is T2, ERα_LBD (GST) (Homo sapiens, UniProt P03372).
T2 construct: ERα_LBD (GST) protein: 4 nM; purchased ThermoFisher A15887
T2 sequence (P03372 311-547 limits assumed): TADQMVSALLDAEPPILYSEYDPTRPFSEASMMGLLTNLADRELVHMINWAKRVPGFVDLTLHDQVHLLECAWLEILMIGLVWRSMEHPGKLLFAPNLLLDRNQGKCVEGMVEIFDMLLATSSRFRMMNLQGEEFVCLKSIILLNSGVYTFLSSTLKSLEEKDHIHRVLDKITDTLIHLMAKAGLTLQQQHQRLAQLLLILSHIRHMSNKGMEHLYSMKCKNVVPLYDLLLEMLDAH
Description: IC50 measurements for binding to ERα_LBD (GST), LanthaScreen TR-FRET ERα competitive binding assay. To be noted: Fluormone ES2 Green tracer, 60 min, read-out: ERα HTRF IC50. Here is the method:
In vitro Assay: IC50 Measurements for binding to ERα_LBD (GST)·
Final assay conditions: • 1. ERα_LBD (GST) protein: 4 nM • 2. Tb Anti-GST: 2 nM • 3. Fluormone ES2 Green tracer: 3 nM • 4. Incubation time: 60 min • 5. DMSO: 1% • 6. Assay buffer: Adding 1M DTT to Nuclear receptor Buffer K for final 5 mM DTT. • 7. ZPE: 1% DMSO • 8. HPE: 1 μM ARV_471 • 9. LanthaScreen® TR-FRET ERα Competitive Binding Assay (ThermoFisher, #A^15887)
100× Compound preparation: • 1) Cherry pick 2 μL 10 mM compound stock to column 1 of a 384 intermediate plate • 2) Add 18 μL DMSO to column 1 to dilute compound to 1 mM. • 3) Transfer 10 μL 1 mM compound to column 1 of a LDV plate. • 2) Add 6 μl DMSO to column 2-10 of the LDV plate. • 3) Compounds undergo 3-fold serial dilution (3 μL+6 μL) in DMSO. • 4) Transfer 120 nL compound solution to assay plate.
Prepare complete nuclear receptor buffer K by adding 1 M DTT to nuclear receptor buffer K for a final concentration of 5 mM DTT. Complete nuclear receptor buffer K must be prepared fresh daily. Prepare 2× protein solution using complete nuclear receptor buffer K containing 8 nM ERα_LBD (GST) and 4 nM Tb Anti-GST. Then, prepare 2× Fluormone ES2 Green tracer (6 nM) using complete nuclear receptor buffer K. Add 6 μL 2× Fluormone ES2 green tracer into a compound plate (PerkinElmer 6008289) by dragonfly with one-tips-addition. Subsequently, add 6 μL 2× protein solution into the plate. Briefly and gently mix the 384-well plate on a plate shaker and incubate at room temperature protected from light for 60 min. The plate is sealed with a cover to minimize evaporation. Read the plate at wavelengths of 520 nm and 495 nm. Calculate the TR-FRET ratio by dividing the emission signal at 520 nm by the emission signal at 495 nm. Generate a binding curve by plotting the emission ratio vs. the log [ligand]. To determine the IC50 value, fit the data using XL-fit for a sigmoidal dose-response.

The target in test [1] is T3, ER (Homo sapiens, UniProt P03372).
T3 construct: endogenous in cells; probably T47D or MCF-7
T3 sequence (P03372 1-595): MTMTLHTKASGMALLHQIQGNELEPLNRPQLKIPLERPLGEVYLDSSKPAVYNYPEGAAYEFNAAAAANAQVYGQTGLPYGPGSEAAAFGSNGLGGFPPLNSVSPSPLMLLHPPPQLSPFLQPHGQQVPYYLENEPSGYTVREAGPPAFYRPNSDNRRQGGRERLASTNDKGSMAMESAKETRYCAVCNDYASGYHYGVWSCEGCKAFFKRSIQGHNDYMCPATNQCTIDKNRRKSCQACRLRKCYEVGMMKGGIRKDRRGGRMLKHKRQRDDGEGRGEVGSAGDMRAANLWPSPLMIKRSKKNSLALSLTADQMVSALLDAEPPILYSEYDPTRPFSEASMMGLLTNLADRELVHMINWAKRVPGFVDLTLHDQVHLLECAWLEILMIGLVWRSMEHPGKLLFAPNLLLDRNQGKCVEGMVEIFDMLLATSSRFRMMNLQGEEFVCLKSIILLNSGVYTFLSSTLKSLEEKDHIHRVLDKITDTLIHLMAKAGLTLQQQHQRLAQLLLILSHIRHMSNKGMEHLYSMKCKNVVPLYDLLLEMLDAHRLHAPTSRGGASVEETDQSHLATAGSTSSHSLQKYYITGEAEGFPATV
Description: In-cell Western (ICW) ER degradation assay in MCF-7 cells. Particulars: for DC50: read-out: ER MCF7 ICW DC50. The class given is cell-based. Here is the method:
(§1) ERa degradative activity of compounds can be assessed in MCF-7 and T47D Cells. MCF-7 and T47D cell are seeded and are subsequently treated with the compounds at certain concentrations (e.g., 0.02 to 300 nM). DMSO can be used as vehicle control. Cells are fixed and are blocked with Intercept (PBS) Blocking Buffer (e.g., Li—COR, Odyssey Blocking Buffer), and are stained with ER (e.g., 1:500, Cell signaling) primary antibody for overnight at cold room. Secondary Antibody (e.g., IRDye 800CW Goat anti-Rabbit IgG) and CellTag 700 Stain are added in Intercept (PBS) Blocking Buffer. Finally, cell plate is placed in incubator to dry. Image and signal are captured on Odyssey® DLx Imaging System.
(§2) In-cell Western (ICW) assays in MCF-7 and T47D cell lines.
(§3) Procedures for ICW assays
(§4) In vitro Assay: MCF-7 and T47D ICW assay
(§5) Day 3: After 16 hrs of compounds treatment, cells were fixed by 4% PFA and permeabilized with elution buffer (0.1% Triton X-100 in 1% PBS Solution). Subsequently, cells were blocked with Intercept (PBS) Blocking Buffer (Li—COR, Odyssey Blocking Buffer), and were stained with ER (1:500, Cell signaling) primary antibody for overnight at cold room.
(§6) Day 4: Remove the buffer, add IRDye 800CW Goat anti-Rabbit IgG Secondary Antibody (1:2000) and CellTag 700 Stain (1:500) in Intercept (PBS) Blocking Buffer. Finally, cell plate is placed in incubator to dry. Image and signal were captured on Odyssey® DLx Imaging System.

Test [2] concerns the target T3, ER. The experiment in a line: In-cell Western (ICW) ER degradation assay in T47D cells. It counts as cell-based. Particulars: for Dmax: T47D, read-out: ER T47D ICW Dmax (%). The protocol:
as §1, §2, §3, §4, §5, §6

Where [3] appears, read: MCF7, read-out: ER MCF7 ICW Dmax (%).
[4] abbreviates: MCF7, MCF-7 cells, 16 hrs, read-out: ER MCF7 ICW Dmax (%).

pIC50: −log10 of the molar value.

T1 sequence (Q96SW2 whole entry): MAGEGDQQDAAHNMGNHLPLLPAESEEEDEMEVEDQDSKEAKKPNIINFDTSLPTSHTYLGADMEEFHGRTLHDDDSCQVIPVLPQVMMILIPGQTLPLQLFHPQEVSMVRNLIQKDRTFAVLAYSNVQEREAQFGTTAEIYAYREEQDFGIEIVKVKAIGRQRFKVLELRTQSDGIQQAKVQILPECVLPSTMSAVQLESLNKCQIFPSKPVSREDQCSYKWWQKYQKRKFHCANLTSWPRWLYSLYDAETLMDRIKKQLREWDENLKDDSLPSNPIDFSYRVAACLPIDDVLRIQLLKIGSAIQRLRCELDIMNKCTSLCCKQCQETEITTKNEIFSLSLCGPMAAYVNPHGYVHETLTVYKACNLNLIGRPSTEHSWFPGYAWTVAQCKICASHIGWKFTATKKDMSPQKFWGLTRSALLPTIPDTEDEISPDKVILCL
T1 sequence (Q16531 whole entry partner): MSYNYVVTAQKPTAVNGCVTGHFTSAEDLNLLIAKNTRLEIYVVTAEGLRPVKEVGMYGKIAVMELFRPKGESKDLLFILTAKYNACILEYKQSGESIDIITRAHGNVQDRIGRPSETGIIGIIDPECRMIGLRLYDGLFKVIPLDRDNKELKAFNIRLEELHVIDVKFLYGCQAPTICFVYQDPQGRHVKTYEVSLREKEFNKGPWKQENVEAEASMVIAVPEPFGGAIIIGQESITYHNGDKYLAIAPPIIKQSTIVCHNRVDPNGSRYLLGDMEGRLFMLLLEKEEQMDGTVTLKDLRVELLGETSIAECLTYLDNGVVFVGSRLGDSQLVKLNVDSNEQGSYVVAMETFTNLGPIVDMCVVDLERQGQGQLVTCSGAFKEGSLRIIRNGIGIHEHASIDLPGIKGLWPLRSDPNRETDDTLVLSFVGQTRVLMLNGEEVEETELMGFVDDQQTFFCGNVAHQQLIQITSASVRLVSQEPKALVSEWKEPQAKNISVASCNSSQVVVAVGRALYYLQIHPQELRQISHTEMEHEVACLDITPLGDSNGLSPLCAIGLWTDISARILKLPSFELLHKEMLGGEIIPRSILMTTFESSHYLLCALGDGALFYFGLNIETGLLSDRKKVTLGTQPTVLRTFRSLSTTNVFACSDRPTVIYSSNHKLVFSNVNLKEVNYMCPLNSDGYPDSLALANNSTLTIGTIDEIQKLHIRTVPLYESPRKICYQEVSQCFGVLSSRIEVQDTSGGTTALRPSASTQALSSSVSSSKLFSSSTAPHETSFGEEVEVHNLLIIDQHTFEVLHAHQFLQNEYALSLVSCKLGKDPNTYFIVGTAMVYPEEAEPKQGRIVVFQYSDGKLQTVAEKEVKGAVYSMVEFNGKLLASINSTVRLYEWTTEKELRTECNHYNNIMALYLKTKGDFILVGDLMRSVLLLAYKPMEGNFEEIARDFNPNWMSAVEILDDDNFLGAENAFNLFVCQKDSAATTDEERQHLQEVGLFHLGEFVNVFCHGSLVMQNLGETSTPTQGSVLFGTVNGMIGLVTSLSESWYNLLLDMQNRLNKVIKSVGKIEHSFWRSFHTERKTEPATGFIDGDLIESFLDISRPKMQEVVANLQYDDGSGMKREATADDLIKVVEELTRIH

Take `COc1cc(N2CCC(CN3CCN4c5ccc6c(c5OCC4C3)CN(C3CCC(=O)NC3=O)C6=O)CC2)ccc1C1c2ccc3[nH]ncc3c2CC(C)N1CC(F)F` (stereo in doubt) [Compound A8, (R)-3-((S)-7-((1-(4-((6R,8S)-7-(2,2-difluoroethyl)-8-methyl-6,7,8,9-tetrahydro-3H-pyrazolo[4,3-f]isoquinolin-6-yl)-3-methoxyphenyl)piperidin-4-yl)methyl)-1-oxo-1,3,5,5a,6,7,8,9-octahydro-2H-pyrazino[1′,2′:4,5][1,4]oxazino[2,3-e]isoindol-2-yl)piperidine-2,6-dione]: at CRBN/DDB1, the pIC50 was 5.30 to 6.30. Besides, the pIC50 on ERα_LBD (GST) is no more than 8.00. Moreover, on ER [1] (MCF-7 cells, 16 hrs), the “ER MCF7 ICW Dmax (%)” value is given as “A (“A”: >=75%)” and the DC50 is less than 1 nM. On ER [2] (T47D cells, 16 hrs), the DC50 was less than 1 nM and the “ER T47D ICW Dmax (%)” value is “A (“A”: >=75%)”.
With `C[C@@H]1Cc2c(ccc3[nH]ncc23)C(c2ccc(N3CCC4(CC3)CC(CN3CCN5c6ccc7c(c6OC[C@H]5C3)CN([C@H]3CCC(=O)NC3=O)C7=O)C4)nc2)N1CC(F)(F)F` (stereo in doubt) [Compound A25, (S)-3-((R)-7-((7-(5-((6S,8R)-8-methyl-7-(2,2,2-trifluoroethyl)-6,7,8,9-tetrahydro-3H-pyrazolo[4,3-f]isoquinolin-6-yl)pyridin-2-yl)-7-azaspiro[3.5]nonan-2-yl)methyl)-1-oxo-1,3,5,5a,6,7,8,9-octahydro-2H-pyrazino[1′,2′: 4,5][1,4]oxazino[2,3-e]isoindol-2-yl)piperidine-2,6-dione], the pIC50 on ERα_LBD (GST) is greater than 8.00. The Dmax is greater than 75% on ER [1] (setting [3]) and greater than 75% on ER [2] (T47D cells, 16 hrs). Also, the DC50 is less than 1 nM on ER [1] (MCF-7 cells, 16 hrs) and less than 1 nM on ER [2] (T47D cells, 16 hrs).
On to `C[C@@H]1Cc2c(ccc3[nH]ncc23)[C@@H](c2ccc(N3CCC4(CC3)CC(CN3CCN5c6ccc7c(c6OC[C@H]5C3)CN([C@H]3CCC(=O)NC3=O)C7=O)C4)cn2)N1CC1(F)CC1` [Compound A4, (S)-3-((R)-7-((7-(6-((6S,8R)-7-((1-fluorocyclopropyl)methyl)-8-methyl-6,7,8,9-tetrahydro-3H-pyrazolo[4,3-f]isoquinolin-6-yl)pyridin-3-yl)-7-azaspiro[3.5]nonan-2-yl)methyl)-1-oxo-1,3,5,5a,6,7,8,9-octahydro-2H-pyrazino[1′,2′:4,5][1,4]oxazino[2,3-e]isoindol-2-yl)piperidine-2,6-dione], for which the pIC50 was greater than 7.30 on CRBN/DDB1 and greater than 8.00 at ERα_LBD (GST). In addition, the Dmax is 50 to 75% on ER [1] (setting [4]) and greater than 75% at ER [2] (T47D cells, 16 hrs). In addition, the DC50 at ER [1] (MCF-7 cells, 16 hrs) was less than 1 nM; at ER [2] (T47D cells, 16 hrs), less than 1 nM.
On to `C[C@@H]1Cc2c(ccc3[nH]ncc23)[C@@H](c2ccc(N3CCC4(CC3)CC(CN3CCC5(CC3)COc3cc6c(cc35)CN([C@H]3CCC(=O)NC3=O)C6=O)C4)cn2)N1CC1(F)CC1` [Compound A5, (S)-3-(1′-((7-(6-((6S,8R)-7-((1-fluorocyclopropyl)methyl)-8-methyl-6,7,8,9-tetrahydro-3H-pyrazolo[4,3-f]isoquinolin-6-yl)pyridin-3-yl)-7-azaspiro[3.5]nonan-2-yl)methyl)-7-oxo-5,7-dihydro-2H,6H-spiro[furo[2,3-f]isoindole-3,4′-piperidin]-6-yl)piperidine-2,6-dione], for which the pIC50 at CRBN/DDB1 is 6.30 to 7.30; on ERα_LBD (GST), greater than 8.00. The maximal degradation (Dmax) on ER [1] (setting [3]) and at ER [2] was 50 to 75% in each case. Further, the DC50 is less than 1 nM on ER [1] (MCF-7 cells, 16 hrs) and less than 1 nM on ER [2] (T47D cells, 16 hrs).
Consider `C[C@@H]1Cc2c(ccc3[nH]ncc23)[C@@H](c2ccc(N3CC4(CCC(CN5CCN6c7ccc8c(c7OC[C@H]6C5)CN([C@H]5CCC(=O)NC5=O)C8=O)CC4)C3)cn2)N1CC1(F)CC1` [Compound A11, (S)-3-((R)-7-((2-(6-((6S,8R)-7-((1-fluorocyclopropyl)methyl)-8-methyl-6,7,8,9-tetrahydro-3H-pyrazolo[4,3-f]isoquinolin-6-yl)pyridin-3-yl)-2-azaspiro[3.5]nonan-7-yl)methyl)-1-oxo-1,3,5,5a,6,7,8,9-octahydro-2H-pyrazino[1′,2′: 4,5][1,4]oxazino[2,3-e]isoindol-2-yl)piperidine-2,6-dione], for which the pIC50 on ERα_LBD (GST) was no more than 8.00. Besides, the Dmax is greater than 75% at ER [1] (setting [4]) and greater than 75% at ER [2] (T47D cells, 16 hrs). Moreover, the DC50 at ER [1] (MCF-7 cells, 16 hrs) was less than 1 nM; at ER [2] (T47D cells, 16 hrs), less than 1 nM.
In the case of `C[C@@H]1Cc2c(ccc3[nH]ncc23)[C@@H](c2ccc(N3CC4(CCC(CN5CCN6c7ccc8c(c7OC[C@H]6C5)CN(C5CCC(=O)NC5=O)C8=O)CC4)C3)cn2)N1CC1(F)CC1` (stereo partly drawn) [Compound A16, (S)-3-((R)-7-((2-(6-((6S,8R)-7-((1-fluorocyclopropyl)methyl)-8-methyl-6,7,8,9-tetrahydro-3H-pyrazolo[4,3-f]isoquinolin-6-yl)pyridin-3-yl)-2-azaspiro[3.5]nonan-7-yl)methyl)-1-oxo-1,3,5,5a,6,7,8,9-octahydro-2H-pyrazino[1′,2′: 4,5][1,4]oxazino[2,3-e]isoindol-2-yl)piperidine-2,6-dione], the pIC50 on ERα_LBD (GST) is greater than 8.00. In addition, the greatest degradation seen (Dmax) at ER [1] (setting [3]) is greater than 75%; at ER [2] (T47D cells, 16 hrs) it was greater than 75%. Besides, the DC50 is less than 1 nM at ER [1] (MCF-7 cells, 16 hrs) and less than 1 nM at ER [2] (T47D cells, 16 hrs).
